Experimental data reported in patent US10287265B2, “Enantiomers of 8-hydroxyquinoline derivatives and the synthesis thereof” (AVIDIN Co. Ltd., priority 2015, dated 2019).
pIC50: −log10 of the molar value. Entries after “also recorded” stand apart in the source; their conditions may differ.

Experiments:
[1] = system: EPO gene; experiment: Erythropoietin gene expression in hippocampus and cortex of aged animals, chronic treatment, qRT-PCR; format: in vivo, mouse; conditions: 18-month-old C57BL/6 female mice, 20 mg/l in drinking water for four months
Method: Twenty-four 18-month-old C57BL/6 female mice (Innovo Ltd., Budapest, Hungary) were divided into two groups randomly: Group 1—untreated control, Group 2—treated with the R-enantiomer according to Example 2, administered in drinking water (20 mg/l) for four months. From both groups, 10-10 mice were sacrificed by CO2 inhalation. […]
To study gene expression, total RNA was extracted from the brain tissues with Accuzol™ Total RNA Extraction Solution (Bioneer, Daejeon, South Korea), according to the manufacturer's protocol. cDNA transcription was carried out with the High Capacity cDNA Reverse Transcription Kit (Life Technologies, Foster City, Calif., USA). Expression of the gene coding for erythropoietin, the EPO gene was determined by qRT-PCR (with HPRT gene serving as a control) with the method and instrument described in Example 33. but here, mouse-specific UPL probes (HPRT: 95, EPO: 16) and primer pairs were applied (mouse HPRT1: 5′-tcctcctcagaccgctttt-3′, mouse HPRT2: 5′-[…]-3′; mouse EPO1: 5′-[…]-3′, mouse EPO2: 5′-cttctgcacaacccatcgt-3′).

[2] = system: C57BL6/J mice; experiment: Scopolamine-induced short-term memory impairment, Y maze test; format: in vivo, mouse; conditions: per os gavage; scopolamine 0.6 mg/kg i.p. 30 min prior to Y maze test
Method: In vivo experiments were carried out according to the National Institute of Health guidelines for the care and use of laboratory animals, approved by the French Ministry for Research and Technology. In the course of experiments, animals were housed at a standard temperature (22±1° C.) and in a light-controlled environment (lights on from 7 a.m. to 8 p.m.) with ad libitum access to food and water. Male C57BL/6 mice (C57BL/6J Rj, ref. SC-CJ-12w-M, Janvier, France) were housed 5 animals per cage. From one week before the start of the experiment until the end of the experiment, mice were housed individually. Animals were monitored twice-a-day by laboratory personnel (8 a.m. and 4 p.m.). In this project, young (14 weeks old) as well as aged (15-16 months old) mice were used. Experiments were carried out using 12 mice per experimental group.
Investigation of short-term working memory—Y maze test Y maze tests were carried out as previously described. Prior to testing, mice were brought to the experimental room for at least 30 min to acclimatize to experimental room conditions. […] Each arm entry was recorded with those entries being counted where the mouse completely placed its hind paws in the chosen arm. […] Results were calculated as the percentage of the ratio of actual detected alternations to possible alternations (defined as the number of total arm entries minus 2). […]

[3] = system: NF-AT (Nuclear Factor of Activated T Cells) protein; experiment: NF-AT transcriptional activity, β-galactosidase reporter in Jurkat cells induced by A23187 and PMA; format: cell-based, human
Method: Cells (3×10^6 cells/ml) were incubated with 10 μM compound according to Example 2 in RPMI-1640 medium (pH=7.4) for 20 min at 37° C. Following this, incubation lasted for an additional 4 h in the presence of 0.5 μM A23187 and 50 ng/ml PMA (12-O-tetradecanoylphorbol-13-acetate). Induced effects can be determined by the β-galactosidase activity of cells treated with the compound according to Example 2 and untreated cells as it catalyzes the transformation of FDG (fluorescein di-β-D-galactopyranoside) into fluorescein. Reading of results was carried out with a SpectraFluor Plus plate reader. Decrease of β-galactosidase activity was compared to the effect of 1 μM cyclosporine A which was served as a positive control.

[4] = system: BALB/c ear skin graft on C57BL/6 recipient mice; experiment: Mouse skin transplantation, graft rejection scoring; format: in vivo; conditions: 5 mg/kg once every day from transplantation; Example 2 orally, tacrolimus intraperitoneal; scoring at day 9 and day 10
Method: Mouse skin transplantation is a standard method to assay host T cell responses to MHC-disparate donor antigens, which protocol was followed in the present example (Garrod and Cahalan; 2008). Briefly, WT C57BL/6 recipient mice (8-12 weeks old) and WT BALB/c donor mice (8-12 weeks old) were anesthetized with a combination of 10 mg/kg Xylazine and 100 mg/kg Ketamine administered by i.p. injection and 0.05 mg/kg Buprenorphine was administered by subcutaneous injection for analgesia. Ear skin (1.0 cm2) from the WT BALB/c donor mouse was grafted onto the flank of the WT C57BL/6 recipient. The implanted skin (graft) was covered with a sterile bandage, which was removed on day 7 post-transplant.
Recipients received either no treatment (controls), or treated with compound according to Example 2 orally at 5 mg/kg dose, once every day until the end of the experiment from the day of transplantation. […]
Different scores were used to define the quality of the grafts: intact grafts (Score 0), early stages of rejection (Score 1-4, corresponding to first clear signals of graft rejection: 1; >25% rejection rate: 2; >50% rejection rate: 3; >75% rejection rate: 4) up to complete graft rejection (Score 5). […] Average scores with SEM were calculated for each group.

pIC50 ([3]; Homo sapiens, Jurkat cells, 0.5 μM A23187 and 50 ng/ml PMA, 4 h, read-out: half-value concentration for reduction of the transcriptional activity of NF-AT protein): 5.66
SMILES: Cc1ccnc(N[C@H](c2ccc(C(F)(F)F)cc2)c2ccc3cccnc3c2O)n1 [Example 2, 7-[(R)-[(4-Methylpyrimidin-2-yl)amino][4-(trifluoromethyl)phenyl]methyl]quinolin-8-ol]
EPO gene expression in hippocampus and cortex compared to untreated control mice [1]: resulted increased EPO gene activity in cerebral cortex and hippocampus; also recorded: induced both hippocampal and cortical EPO expression
inhibition of scopolamine-induced short-term memory impairment [2]: inhibited
inhibition of transcriptional induction regulated by NF-AT (concentration range in words) [3]: inhibits in micromolar concentration
skin graft rejection score (0-5) [4]: smaller score values both on day 9 and on day 10
